Test results as given in US20210137897A1, “TOPICAL mTOR INHIBITORS FOR CUTANEOUS PROLIFERATIVE AND VASCULAR CONDITIONS” (GEORGETOWN UNIVERSITY, priority 2019, published 2021).

Legend:
[1] = test system: Langerhans cell histiocytosis, multisystem disease; settings: in combination with a single dose of methylprednisolone; cited from earlier work
[2] = test system: capillary malformation-arteriovenous malformation (CM-AVM) syndrome; test: Case report: topical 1% rapamycin cream in CM-AVM syndrome; assay type: in vivo, human; settings: topical 1% rapamycin cream twice a day to the face
Source text: A person presented with several well demarcated pink to slightly tan patches with perilesional halos/rims of pallor scattered on their body, including one on their face. Many of those birthmarks were present since birth or at least since a very young age. The patient's parent also had similar-appearing birthmarks. The patient was otherwise well. Genetic testing confirmed a pathogenic variant identified in RASA1 gene consistent with capillary malformation-arteriovenous malformation (CM-AVM) syndrome. Per the patient and their parent's interest in a topical treatment, off-label use of topical 1% rapamycin cream was used twice a day to the lesion on the face.

[3] = cited from earlier work
[4] = test system: venolymphatic malformation; test: Case report: topical 1% sirolimus cream in venolymphatic malformation; assay type: in vivo, human
Source text: A person presented with a birthmark on the left thigh, present since birth. […] Clinically, it appeared most consistent with a mixed venolymphatic malformation, possibly with a small capillary component to it. Over the last few years, it began scabbing and occasionally bleeding at the surface. The deeper areas sometimes caused a throbbing pain. A decision was made to start treatment with topical 1% sirolimus cream twice a day. After 1.5 to 2 months treatment, the birthmark started to improve. Before starting topical sirolimus, they had painful episodes (6/10 severity) 2-3× per week that lasted 15-20 minutes. […] Additionally, overall the lesion was much flatter since starting the topical sirolimus. Their quality of life improved now that they were is in much less pain.
Previous reports have shown effectiveness of oral sirolimus in the treatment of venolymphatic malformations; however, to the best of inventor's knowledge, topical treatment has never been reported. This patient's venolymphatic malformation improved both symptomatically and improved in appearance with topical 1% rapamycin treatment. […] Additionally, inventor expects that all superficial or cutaneous vascular malformations and cutaenous vascular conditions would respond to treatment with topical mTOR inhibitor.

[5] = Sirolimus blood levels during topical treatment of the non-LCH patient; assay type: in vivo, human; settings: at 1 month; topical rapamycin (1%) ointment to left face
Source text: Topical rapamycin (1%) compounded in ointment was initiated to the left face with the right face serving as a control. Sirolimus blood levels were negative at 1 month.

keloids = test: Case report: 1% topical rapamycin on keloidal, contracted burn scar; assay type: in vivo, human; settings: 1% topical rapamycin one to two times a day on thigh scar
Source text: As an adjuvant treatment, they treated their worst keloidal, contracted scar on their thigh with 1% topical rapamycin one to two times a day.

[6] = test system: confluent and reticulated papillomatosis (CARP); test: Case report: topical 1% rapamycin cream in confluent and reticulated papillomatosis; assay type: in vivo, human; settings: 1% rapamycin cream twice a day for 3 months
Source text: FIG. 1A is a photographic image of the chest of a patient afflicted with confluent and reticulated papillomatosis (CARP) before starting 3 months' treatment with topically applied 1% rapamycin (sirolimus).
FIG. 1B is a photographic image of the chest of the patient in FIG. 1A following 3 months' treatment with topically applied 1% rapamycin (sirolimus).
A person was initially diagnosed with CARP in October 2015 when they presented with numerous hyperpigmented, slightly velvety macules with a fine overlying scale coalescing into reticulated and confluent patches on their chest, neck, and upper back. […] They then embarked upon a course of topical 1% rapamycin cream applied to affected areas twice a day for 3 months. […] Pre- and post treatment photographs are presented as FIGS. 1A and 1B, respectively.

Row | Sirolimus blood levels [5] | Compound | disease response [1] [%] | reactivation [1] [%] | survival [1] [%] | toxicity [1] [%] | tolerability [2] | water solubility [3] | duration of pain episode ([4]; after 1-2 months of topical 1% sirolimus, before treatment 15-20 minutes) | treatment time until the birthmark started to improve ([4]; person, topical 1% sirolimus cream twice a day) [months] | tolerability (keloids) | local tolerability at the site of application [6]
1 | – | CC[C@]1(O)C[C@@H]2CN(CCc3c([nH]c4ccccc34)[C@@](C(=O)OC)(c3cc4c(cc3OC)N(C)[C@H]3[C@@](O)(C(=O)OC)[C@H](OC(C)=O)[C@]5(CC)C=CCN6CC[C@]43[C@@H]65)C2)C1 [vinblastine] | 58 | 61 | 76 | 47 | – | – | – | – | – | –
2 | – | COc1cc([C@@H]2c3cc4c(cc3[C@@H](O[C@@H]3O[C@@H]5CO[C@@H](C)O[C@H]5[C@H](O)[C@H]3O)[C@H]3COC(=O)[C@H]23)OCO4)cc(OC)c1O [etoposide] | 65 | 55 | 83 | 58 | – | – | – | – | – | –
3 | negative | CO[C@H]1C[C@@H]2CC[C@@H](C)[C@@](O)(O2)C(=O)C(=O)N2CCCC[C@H]2C(=O)O[C@H]([C@H](C)C[C@@H]2CC[C@@H](O)[C@H](OC)C2)CC(=O)[C@H](C)/C=C(\C)[C@@H](O)[C@@H](OC)C(=O)[C@H](C)C[C@H](C)/C=C/C=C/C=C/1C [sirolimus, Sirolimus] | – | – | – | – | tolerated well without side effects | poorly water soluble | about 10 minutes | 1.5 to 2 | tolerated the treatment well without any known side effects | denied having any itching, burning, or pain
